# Data published in US11319303B2 (WIGEN BIOMEDICINE TECHNOLOGY (SHANGHAI) CO., LTD., priority 2017, dated 2022).
# Structures can show the parent of a compound that is named as a salt.
# Biological target: LC3B (Homo sapiens, UniProt Q9GZQ8)
# Assay: Fluorescence Polarization (FP) Assay: displacement of FITC-labeled peptide from GST-LC3B
# Format: binding
# Conditions: Fluorescence Polarization assay; GST-LC3B 180 nM, FITC-labeled peptide 18 nM, 25° C.; read-out: IC50
# Procedure: The compounds of the present invention for regulating the autophagy-related protein LC3B were tested by Fluorescence Polarization (FP) Assay.
# Fluorescence Polarization (FP) Assay Test
row,Structure (SMILES),IC50
1,"COc1cccc(OC)c1C1CC(=O)C(=CO)C(=O)C1 (stereo not shown) [Compound 441, 2-(hydroxymethylene)-5-(2,6-dimethoxyphenyl) cyclohexane-1,3-dione]",15 to 100 µM
2,"O=C1CC(c2ccccc2O)CC(=O)C1=CO (stereo not shown) [Compound 442, 2-(hydroxymethylene)-5-(2-hydroxyphenyl)cyclo-hexane-1,3-dione]",15 to 100 µM
3,"O=C1CC(c2ccc(O)cc2)CC(=O)C1=CO (stereo not shown) [Compound 443, 2-(hydroxymethylene)-5-(4-hydroxyphenyl)cyclo-hexane-1,3-dione]",15 to 100 µM
4,"O=C1CC(CCc2ccc3c(c2)OCO3)CC(=O)C1=CO (stereo not shown) [Compound 445, 2-(hydroxymethylene)-5-(2-(benzo[d] [1,3]dioxo-5-yl)ethyl)-cyclohexane-1,3-dione]",15 to 100 µM
5,"O=C1CC(c2c(C(F)(F)F)ccc(Cl)c2F)CC(=O)C1=CO (stereo not shown) [Compound 447, 2-(hydroxymethylene)-5-((2-fluoro-3-chloro-6-trifluoromethyl)phenyl)cyclohexane-1,3-dione]",< 3 µM
6,"CC(O)=C1C(=O)CC(c2ccccc2)CC1=O (stereo not shown) [Compound 449, 2-(1-hydroxyethylidene)-5-phenylcyclohexane-1,3-dione]",15 to 100 µM
7,"O=C1CCN(c2ccccc2)C(=O)/C1=C\O [Compound 450, 3-(hydroxymethylene)-N-phenylpiperidine-2,4-dione]",15 to 100 µM
8,"O=C1CC(c2ccccc2)C(F)C(=O)/C1=C/O (stereo not shown) [Compound 451, 2-(hydroxymethylene)-4-fluoro-5-(phenyl)cyclohexane-1,3-dione]",3 to 15 µM
9,"O=C1CC(c2ccccc2)C(F)(F)C(=O)/C1=C/O (stereo not shown) [Compound 452, 2-(hydroxymethylene)-4,4-difluoro-5-(phenyl)cyclohexane-1,3-dione]",3 to 15 µM
10,"O=C1CC(c2cccs2)CC(=O)C1=CO (stereo not shown) [Compound 453, 2-(hydroxy-methylene)-5-(2-thiophen)cyclo-hexane-1,3-dione lithium salt]",3 to 15 µM
11,"O=C1CC(c2cccs2)CC(=O)C1=CO (stereo not shown) [Compound 455, 2-(hydroxy-methylene)-5-(2-thiophen)cyclo-hexane-1,3-dione potassium salt]",3 to 15 µM
12,"O=C1CC(c2ccsc2)CC(=O)C1=CO (stereo not shown) [Compound 456, 2-(hydroxy-methylene)-5-(3-thiophen)cyclo-hexane-1,3-dione lithium salt]",3 to 15 µM
13,"O=C1CC(c2ccsc2)CC(=O)C1=CO (stereo not shown) [Compound 457, 2-(hydroxy-methylene)-5-(3-thiophen)cyclo-hexane-1,3-dione sodium salt]",3 to 15 µM
14,"O=C1CC(c2ccsc2)CC(=O)C1=CO (stereo not shown) [Compound 458, 2-(hydroxy-methylene)-5-(3-thiophen)cyclo-hexane-1,3-dione potassium salt]",3 to 15 µM

# Second part, the compound after the results:
row,IC50,Structure (SMILES)
1,< 3 µM,"O=C1CC(c2c[nH]c3ccccc23)CC(=O)C1=CO (stereo not shown) [Compound 430, 2-(hydroxymethylene)-5-(1H-indol-3-yl)cyclohexane-1,3-dione]"
2,3 to 15 µM,"O=C1CC(c2ccnc3ccccc23)CC(=O)C1=CO (stereo not shown) [Compound 431, 2-(hydroxymethylene)-5-(4-quinoline)cyclohexane-1,3-dione]"
3,< 3 µM,"COc1ccc(Br)c(C2CC(=O)C(=CO)C(=O)C2)c1 (stereo not shown) [Compound 432, 2-(hydroxymethylene)-5-(2-bromo-5-methoxyphenyl)cyclo-hexane-1,3-dione]"
4,< 3 µM,"COc1cc(Br)c(C2CC(=O)C(=CO)C(=O)C2)cc1OC (stereo not shown) [Compound 433, 2-(hydroxymethylene)-5-(2-bromo-4,5-dimethoxyphenyl) cyclohexane-1,3-dione]"
5,3 to 15 µM,"O=C1CC(c2ccccc2[N+](=O)[O-])CC(=O)C1=CO (stereo not shown) [Compound 434, 2-(hydroxymethylene)-5-(2-nitrophenyl)cyclo-hexane-1,3-dione]"
6,3 to 15 µM,"O=C1CC(c2cccc([N+](=O)[O-])c2)CC(=O)C1=CO (stereo not shown) [Compound 435, 2-(hydroxymethylene)-5-(3-nitrophenyl)cyclo-hexane-1,3-dione]"
7,3 to 15 µM,"O=C1CC(c2ccc([N+](=O)[O-])cc2)CC(=O)C1=CO (stereo not shown) [Compound 436, 2-(hydroxymethylene)-5-(4-nitrophenyl)cyclo-hexane-1,3-dione]"
8,3 to 15 µM,"O=C1CC(c2ccc(C(F)(F)F)cc2)CC(=O)C1=CO (stereo not shown) [Compound 437, 2-(hydroxymethylene)-5-(4-trifluoromethylphenyl) cyclohexane-1,3-dione]"
9,3 to 15 µM,"O=C1CC(c2ccc(Br)cc2)CC(=O)C1=CO (stereo not shown) [Compound 438, 2-(hydroxymethylene)-5-(4-bromophenyl)cyclo-hexane-1,3-dione]"
10,3 to 15 µM,"O=C1CC(c2cccc(Br)c2)CC(=O)C1=CO (stereo not shown) [Compound 439, 2-(hydroxymethylene)-5-(3-bromophenyl)cyclo-hexane-1,3-dione]"
11,3 to 15 µM,"CSc1ccc(C2CC(=O)C(=CO)C(=O)C2)cc1 (stereo not shown) [Compound 440, 5-(4-methylthiophenyl)-2-(hydroxymethylene) cyclohexane-1,3-dione]"
12,3 to 15 µM,"O=C1CC(c2ccccc2)CC(=O)C1=CO (stereo not shown) [Compound 444, 2-(hydroxymethylene)-5-phenylcyclohexane-1,3-dione]"
13,3 to 15 µM,"O=C1CC(c2cccc(F)c2)CC(=O)C1=CO (stereo not shown) [Compound 446, 2-(hydroxymethylene)-5-(3-fluorophenyl)cyclo-hexane-1,3-dione]"
14,3 to 15 µM,"O=C1C=C(c2ccccc2)OC(=O)C1=CO [Compound 448, 3-(hydroxymethylene)-6-phenyl-2H-pyran-2,4(3H)-dione]"
15,< 3 µM,"O=C1CC(c2cccc3[nH]ccc23)CC(=O)C1=CO (stereo not shown) [Compound 459, 2-(hydroxy-methylene)-5-(1H-indol-4-yl)cyclo-hexane-1,3-dione lithium salt]"
16,< 3 µM,"O=C1CC(c2cccc3[nH]ccc23)CC(=O)C1=CO (stereo not shown) [Compound 460, 2-(hydroxy-methylene)-5-(1H-indol-4-yl)cyclo-hexane-1,3-dione sodium salt]"
17,< 3 µM,"O=C1CC(c2cccc3[nH]ccc23)CC(=O)C1=CO (stereo not shown) [Compound 461, 2-(hydroxy-methylene)-5-(1H-indol-4-yl)cyclo-hexane-1,3-dione potassium salt]"
